Here are results for 1 compound from patent US20240391859A1, “ALDEHYDE COMPOSITION” (MITSUBISHI GAS CHEMICAL COMPANY, INC., priority 2021, published 2024).

Series [1] can be described thus: Evaluation of threshold of smell. To be noted: diluted with dipropylene glycol; lower limit concentration at which smell can be distinguished. Here is the method: A filter paper having a width of 8 mm and a length of 15 cm was impregnated with each diluent and a lower limit concentration at which smell can be distinguished by a method in which a specialized panelist sniffs was evaluated. As the lower limit concentration is lower, the threshold of smell is lower, and the intensity and diffusibility of the aroma are more excellent.

In a further series the test system is Bhas42 cells. The experiment in a line: Carcinogenicity prediction test (transformation test based on OECD GD231). The series is classed as cell-based. To be noted: in vitro. As to the method:
Using the aldehyde compositions obtained in Examples and Lilial (3-(p-tert-butylphenyl)-2-methylpropanal), a transformation test (an in vitro carcinogenicity prediction test using Bhas42 cells) was performed based on OECD GD231 to determine whether the carcinogenicity was negative or positive. When the result of this test is negative, it is predicted that there is no possibility of causing carcinogenicity, and safety is high.

In series [1], `CC(C=O)Cc1ccc(C(C)(C)C)cc1` (centres unmarked) [Comparative Example 5, 3-(p-tert-butylphenyl)-2-methylpropanal] gave a Threshold of smell of 1 ppm. The Carcinogenicity prediction test result in the series on Bhas42 cells is “Positive”.
